Test results from patent US8273900B2, “Organic compounds” (Novartis AG, priority 2008, dated 2012).
Counter-ions that a name gives are not always drawn.

Biological target: T1, human recombinant CRF-1 receptor (Homo sapiens, UniProt P34998)
T1 construct: expressed in transfected cells; host or cells: CHO cells (G418-selected)
T1 sequence (P34998 24-415): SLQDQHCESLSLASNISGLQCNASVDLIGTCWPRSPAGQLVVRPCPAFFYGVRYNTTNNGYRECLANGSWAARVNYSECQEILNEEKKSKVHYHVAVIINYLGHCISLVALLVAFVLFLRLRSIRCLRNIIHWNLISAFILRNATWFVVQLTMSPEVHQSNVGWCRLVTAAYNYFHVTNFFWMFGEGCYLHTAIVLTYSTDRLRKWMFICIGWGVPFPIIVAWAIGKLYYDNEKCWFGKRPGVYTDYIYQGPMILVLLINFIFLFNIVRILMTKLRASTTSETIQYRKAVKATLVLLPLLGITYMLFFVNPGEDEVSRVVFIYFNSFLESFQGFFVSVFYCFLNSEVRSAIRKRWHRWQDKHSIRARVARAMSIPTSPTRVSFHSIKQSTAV
Test: CRF-1 receptor antagonism, HTRF cAMP assay in CHO cells in the presence of 1 nM CRF
Format: cell-based
Conditions: CHO cells expressing human recombinant CRF-1; inhibition of the effect of 1 nM CRF on cAMP
Description: The CRF-1 or CRF-2α receptor antagonistic activity of the agents of the invention has been determined in vitro in the following assay:
Chinese hamster ovary (CHO) cells expressing either the human recombinant CRF-1 or CRF-2a receptors (Chen et al., Proc Natl Acad Sci USA 90, 8967-8971, 1993; Liaw et al., Endocrinology 137, 72-77, 1996) are propagated in Dulbecco's modified Eagle medium supplemented with 10% foetal calf serum, non-essential amino acids, 100 U/ml penicillin, 100 mg/l streptomycin and 1 g/l geneticin (G418). For cyclic AMP determinations the Homogeneous Time-Resolved Fluoresce (HTRF) cAMP dynamic 2 kit (Cisbio International, France) was used as per manufacturers' instructions. CHO cells, previously cryopreserved, were thawed, centrifuged for 7 mins at 1200 rpm and resuspended in serum free media, then pipetted out onto clear bottomed black tissue culture treated 384-well microtitre plates (Corning Inc, US) at 2,000 cells per well. Compounds of the invention, prepared in DMSO, and subsequently diluted 50 fold in assay buffer (1× Hanks balanced salt solution, 0.2% (w/v) bovine serum albumin, 1.7 mM isobutylmethylxanthine and 10 mM Hepes, pH 7.4) are then added onto the cell containing plate where a further 2 fold dilution is performed and incubated for 15 min. Following incubation, buffer containing a 5 times final concentration of agonist is added to the plate and incubated for 30 min. Finally, d2 dye labelled cAMP and cryptate labeled anti-cAMP antibody, both made in lysis buffer, are added to the plate followed by a settling period of 1 hour. During the settling period cAMP produced by the cells competes with the d2 labelled cAMP for the anti-cAMP cryptate. The plate is read on the Pherastar (BMG, Germany). Increasing levels of endogenous cAMP produced by cells can be followed by a decrease of fluorescent signal and vice versa. Values represented by a change in arbitrary fluorescence units are converted into cAMP concentrations by use of a standard curve the reagents for which are supplied with the kit. Antagonist dose response curves (1 nM-30 μM) are constructed in the presence of 1 nM CRF. IC50 values of antagonists are calculated by fitting the percent inhibition of the effect of CRF by increasing concentrations of the antagonists. The fit is performed using the nonlinear logistic function of the Activitybase software package v 5.4.5.27 (IDBS, UK).

In order of falling IC50:
1. O=C(O)c1ccc(NC[C@H]2CC[C@H](NC(=O)c3cc(C(F)(F)F)ccc3Cl)CC2)nc1 [Example 1.33, Trans-6-{[4-(2-Chloro-5-trifluoromethyl-benzoylamino)-cyclohexylmethyl]-amino}-nicotinic acid]  6420 nM
2. O=C(N[C@H]1CC[C@@H](CNc2cc(-c3ccc(F)cc3)n[nH]2)CC1)c1cc(C(F)(F)F)ccc1Cl [Example 14, Cis-2-Chloro-N-(4-{[5-(4-fluoro-phenyl)-2H-pyrazol-3-ylamino]-methyl}-cyclohexyl)-5-trifluoromethyl-benzamide]  3230 nM
3. CN(C)Cc1ccc(NC[C@H]2CC[C@H](NC(=O)c3cc(C(F)(F)F)ccc3Cl)CC2)nc1 [Example 1.34, Trans-2-Chloro-N-{4-[(5-dimethylaminomethyl-pyridin-2-ylamino)-methyl]-cyclohexyl}-5-trifluoromethyl-benzamide hydrochloride]  1240 nM
4. O=C(N[C@H]1CC[C@H](CNCc2cc(-c3ccccc3)on2)CC1)c1cc(C(F)(F)F)ccc1Cl [Example 2.35, Trans-2-Chloro-N-(4-{[(5-phenyl-isoxazol-3-ylmethyl)-amino]-methyl}-cyclohexyl)-5-trifluoromethyl-benzamide]  346 nM
5. Cc1cc(C)nc(NC[C@H]2CC[C@H](NC(=O)c3cc(C(F)(F)F)ccc3Cl)CC2)c1 [Example 2.6, Trans-2-Chloro-N-{4-[(4,6-dimethyl-pyridin-2-ylamino)-methyl]-cyclohexyl}-5-trifluoromethyl-benzamide]  215 nM
6. C[C@@H]1C[C@@H](NC(=O)c2cc(C(F)(F)F)ccc2Cl)CC[C@@H]1CNc1cc(-c2ccc(F)cc2)[nH]n1 (racemic) [Example 1.35a, (+/−)-2-Chloro-N-((1S,3R,4S)-4-{[5-(4-fluoro-phenyl)-1H-pyrazol-3-ylamino]-methyl}-3-methyl-cyclohexyl)-5-trifluoromethyl-benzamide]  199 nM
7. CN(Cc1cc(-c2ccccc2)n[nH]1)C[C@H]1CC[C@H](NC(=O)c2cc(Cl)ccc2Cl)CC1 [Example 11, Trans-2,5-Dichloro-N-(4-{[methyl-(5-phenyl-2H-pyrazol-3-ylmethyl)amino]-methyl}-cyclohexyl)-benzamide]  174 nM
8. O=C(N[C@H]1CC[C@H](CNc2ccccc2)CC1)c1cccc(Cl)c1 [Example 12, Trans-3-Chloro-N-(4-phenylaminomethyl-cyclohexyl)-benzamide]  137 nM
9. O=C(N[C@H]1CC[C@H](Cn2ccc(N3CCNC3=O)n2)CC1)c1cc(C(F)(F)F)ccc1Cl [Example 6, Trans-2-chloro-N-(4-((3-(2-oxoimidazolidin-1-yl)-1H-pyrazol-1-yl)methyl)cyclohexyl)-5-(trifluoromethyl)benzamide]  90 nM
10. O=C(N[C@H]1CC[C@H](CNc2cccnc2)CC1)c1cc(C(F)(F)F)ccc1Cl [Example 4.21, Trans-2-Chloro-N-[4-(pyridin-3-ylaminomethyl)-cyclohexyl]-5-trifluoromethyl-benzamide]  76 nM
11. O=C(N[C@H]1CC[C@H](CNc2cccc3ncccc23)CC1)c1cccc(C(F)(F)F)c1 [Example 13, Trans-N-[4-(Quinolin-5-ylaminomethyl)-cyclohexyl]-3-trifluoromethyl-benzamide]  70 nM
12. Cc1ccc(NC[C@H]2CC[C@H](NC(=O)c3cc(C(F)(F)F)ccc3Cl)CC2)nc1 [Example 2.8, Trans-2-Chloro-N-{4-[(5-methyl-pyridin-2-ylamino)-methyl]-cyclohexyl}-5-trifluoromethyl-benzamide]  66 nM
13. Cc1ncc(Cl)cc1C(=O)N[C@H]1CC[C@H](CNc2nc(C)c(C)s2)CC1 [Example 5.14, Trans-5-Chloro-N-{4-[(4,5-dimethyl-thiazol-2-ylamino)-methyl]-cyclohexyl}-2-methyl-nicotinamide]  66 nM
14. O=C(N[C@H]1CC[C@H](CNc2ccccc2Cl)CC1)c1cc(C(F)(F)F)ccc1Cl [Example 2.26, Trans-2-Chloro-N-{4-[(2-chloro-phenylamino)-methyl]-cyclohexyl}-5-trifluoromethyl-benzamide]  63 nM
15. CC(C)c1cc(NC[C@H]2CC[C@H](NC(=O)c3cc(C(F)(F)F)ccc3Cl)CC2)n[nH]1 [Example 4.16, Trans-2-Chloro-N-{4-[(5-isopropyl-1H-pyrazol-3-ylamino)-methyl]-cyclohexyl}-5-trifluoromethyl-benzamide]  63 nM
16. O=C(N[C@H]1CC[C@H](CNc2cc(-c3ccc(F)cc3)n[nH]2)CC1)c1cc(C(F)(F)F)ccc1Cl [Example 4.11, Trans-2-Chloro-N-(4-{[5-(4-fluoro-phenyl)-2H-pyrazol-3-ylamino]-methyl}-cyclohexyl)-5-trifluoromethyl-benzamide]  61 nM
17. CCCc1cc(NC[C@H]2CC[C@H](NC(=O)c3cc(C(F)(F)F)ccc3Cl)CC2)n[nH]1 [Example 4.15, Trans-2-Chloro-N-{4-[(5-propyl-1H-pyrazol-3-ylamino)-methyl]-cyclohexyl}-5-trifluoromethyl-benzamide]  61 nM
18. Cc1nc(NC[C@H]2CC[C@H](NC(=O)c3cc(C(F)(F)F)ccc3Cl)CC2)sc1C [Example 3, Trans-2-chloro-N-{4-[(4,5-dimethyl-thiazol-2-ylamino)-methyl]-cyclohexyl}-5-trifluoromethyl-benzamide]  60 nM
19. O=C(N[C@H]1CC[C@H](CNc2ccccc2)CC1)c1cc(C(F)(F)F)ccc1Cl [Example 4.33, Trans-2-Chloro-N-(4-phenylaminomethyl-cyclohexyl)-5-trifluoromethyl-benzamide]  50 nM
20. O=C(N[C@H]1CC[C@H](CNc2cccc(F)c2)CC1)c1cc(C(F)(F)F)ccc1Cl [Example 9, Trans-2-Chloro-N-{4-[(3-fluoro-phenylamino)-methyl]-cyclohexyl}-5-trifluoromethyl-benzamide]  50 nM
21. O=C(N[C@H]1CC[C@H](CNc2cc(C3CC3)n[nH]2)CC1)c1cc(C(F)(F)F)ccc1Cl [Example 8, Trans-2-Chloro-N-{4-[(5-cyclopropyl-2H-pyrazol-3-ylamino)-methyl]-cyclohexyl}-5-trifluoromethyl-benzamide]  47 nM
22. Cc1cncc(NC[C@H]2CC[C@H](NC(=O)c3cc(C(F)(F)F)ccc3Cl)CC2)c1 [Example 10, Trans-2-chloro-N-(4-((5-methylpyridin-3-ylamino)methyl)-cyclohexyl)-5-(trifluoromethyl)benzamide]  41 nM
23. Cc1cccc(NC[C@H]2CC[C@H](NC(=O)c3cc(C(F)(F)F)ccc3Cl)CC2)n1 [Example 2.9, Trans-2-Chloro-N-{4-[(6-methyl-pyridin-2-ylamino)-methyl]-cyclohexyl}-5-trifluoromethyl-benzamide]  39 nM
24. Cc1cccnc1NC[C@H]1CC[C@H](NC(=O)c2cc(C(F)(F)F)ccc2Cl)CC1 [Example 1, Trans-2-Chloro-N-{4-[(3-methyl-pyridin-2-ylamino)-methyl]-cyclohexyl}-5-trifluoromethyl-benzamide]  38 nM
25. Cc1cnc(NC[C@H]2CC[C@H](NC(=O)c3cc(C(F)(F)F)ccc3Cl)CC2)s1 [Example 2.5, Trans-2-Chloro-N-{4-[(5-methyl-thiazol-2-ylamino)-methyl]-cyclohexyl}-5-trifluoromethyl-benzamide]  36 nM
26. Cc1nc(NC[C@H]2CC[C@H](NC(=O)c3cc(Cl)cnc3Cl)CC2)sc1C [Example 1.18, Trans-2,5-Dichloro-N-{4-[(4,5-dimethyl-thiazol-2-ylamino)-methyl]-cyclohexyl}-nicotinamide]  31 nM
27. Cc1cc(C)n(C[C@H]2CC[C@H](NC(=O)c3cc(C(F)(F)F)ccc3Cl)CC2)n1 [Example 7, Trans-2-chloro-N-[4-(3,5-dimethyl-pyrazol-1-ylmethyl)-cyclohexyl]-5-trifluoromethyl-benzamide]  22 nM
28. Cc1ncccc1NC[C@H]1CC[C@H](NC(=O)c2cc(C(F)(F)F)ccc2Cl)CC1 [Example 1.13, Trans-2-Chloro-N-{4-[(2-methyl-pyridin-3-ylamino)-methyl]-cyclohexyl}-5-trifluoromethyl-benzamide]  19 nM
